# Test results: paper PMC9675441 (JCI Insight, 2022)
# Target: T1, ISG20L2 (interferon-stimulated 20 kDa exonuclease-like 2) (Homo sapiens, UniProt Q9H9L3)
# T1 construct: recombinant human ISG20L2 (rISG)
# T1 sequence (Q9H9L3 1-353): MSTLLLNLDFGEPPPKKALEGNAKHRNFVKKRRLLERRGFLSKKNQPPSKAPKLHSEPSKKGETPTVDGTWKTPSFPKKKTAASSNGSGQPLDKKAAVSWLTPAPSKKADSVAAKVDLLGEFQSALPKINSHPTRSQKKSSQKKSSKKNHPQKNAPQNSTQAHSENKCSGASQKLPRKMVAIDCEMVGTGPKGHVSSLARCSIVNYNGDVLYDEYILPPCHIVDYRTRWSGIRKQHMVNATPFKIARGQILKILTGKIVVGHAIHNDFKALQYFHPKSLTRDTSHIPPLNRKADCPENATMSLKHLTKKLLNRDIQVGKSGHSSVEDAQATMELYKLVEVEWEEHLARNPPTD
# Assay: SPR (Biacore X100, ISG20L2 immobilized on CM5 chip)
# Type: binding
row,Kd,SMILES
1,8.71 µM,"CC(C)C[C@H](NC(=O)[C@H](CCc1ccccc1)NC(=O)CN1CCOCC1)C(=O)N[C@@H](Cc1ccccc1)C(=O)N[C@@H](CC(C)C)C(=O)[C@@]1(C)CO1 [CFZ, carfilzomib]"
2,26.7 µM,"CC(C)C[C@H](NC(=O)[C@H](Cc1ccccc1)NC(=O)c1cnccn1)B(O)O [BTZ, bortezomib]"
